Data on 25 compounds can be found in patent publication US9296723B2, “NAMPT inhibitors” (AbbVie Inc., priority 2012, dated 2016).

In assay [1] the target is T1, NAMPT (Homo sapiens, UniProt P43490). Kind of assay: Time-Resolved Fluorescence Resonance Energy Transfer (TR-FRET) Binding Assay of NAMPT. Conditions: 6.8 nM NAMPT, 200 nM probe, equilibrated 3 hours, no substrates. The method, boiled down:
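IC50s come from four-parameter logistic fits of control-normalized Em520/Em495 TR-FRET ratios (Ex 337 nm) against compound concentration. Before reading, enzyme, probe, antibody and compound equilibrated for 3 h at room temperature.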

Assay [2] deals with T1, NAMPT. Description: TR-FRET Binding Assay of NAMPT with PRPP. As to conditions: 2 nM NAMPT, 2 nM probe, 200 µM PRPP and 2.5 mM ATP, equilibrated 16 hours. The method, boiled down:
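Substrates present: PRPP at 200 µM and ATP at 2.5 mM, final, alongside 2 nM enzyme, 2 nM tracer and 1 nM terbium anti-His donor in 2% DMSO. A 16-hour equilibration preceded the time-resolved FRET read, allowing compounds to be enzymatically modified.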

A further assay concerns PC3 cells. Description: NAMPT Cell Proliferation Assay (Cell Titer Glo). In kind it is cell-based. Conditions: Homo sapiens, PC-3, 120 h, incubated 5 days, cell viability. The gist of the method:
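Viability measured by Cell Titer Glo luminescence after 5-day exposure of attached PC3 cells to compound, dosed as 10-fold serial dilutions ([…]) in RPMI/10% FBS at 37 °C and 5% CO2. Percent inhibition fitted to sigmoidal dose-response curves for IC50.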

Structures are written as SMILES.

T1 sequence (P43490 whole entry): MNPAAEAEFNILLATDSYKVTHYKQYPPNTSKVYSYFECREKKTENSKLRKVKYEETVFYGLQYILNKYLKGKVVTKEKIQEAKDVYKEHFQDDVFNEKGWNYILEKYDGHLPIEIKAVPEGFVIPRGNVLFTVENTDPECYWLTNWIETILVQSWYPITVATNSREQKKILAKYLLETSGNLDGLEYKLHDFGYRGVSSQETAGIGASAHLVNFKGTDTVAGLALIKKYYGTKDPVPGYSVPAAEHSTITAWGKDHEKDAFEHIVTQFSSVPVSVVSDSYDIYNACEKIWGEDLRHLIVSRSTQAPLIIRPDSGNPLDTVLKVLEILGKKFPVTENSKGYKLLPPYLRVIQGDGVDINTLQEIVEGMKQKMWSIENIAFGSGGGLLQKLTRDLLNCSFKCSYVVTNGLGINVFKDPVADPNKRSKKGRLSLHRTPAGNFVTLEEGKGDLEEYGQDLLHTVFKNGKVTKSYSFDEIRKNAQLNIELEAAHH

With `CC(C)(C)CN1CCC(c2ccc(NC(=O)N3CC(c4cccnc4)C3)cc2)CC1` [Example 238, N-{4-[1-(2,2-dimethylpropyl)piperidin-4-yl]phenyl}-3-(pyridin-3-yl)azetidine-1-carboxamide], the concentration for half-maximal inhibition (IC50) on NAMPT [1] amounted to 4.01 µM; on NAMPT [2], 0.00141 µM; in the assay with PC3 cells, 0.746 µM.

In the case of `COCC(=O)N1CC(c2ccc(NC(=O)N3CC(c4cccnc4)C3)cc2)C1` [Example 218, N-{4-[1-(methoxyacetyl)azetidin-3-yl]phenyl}-3-(pyridin-3-yl)azetidine-1-carboxamide], the IC50 on NAMPT [1] was 0.171 µM; on NAMPT [2], 0.000451 µM; with PC3 cells, 0.188 µM.

`CC(C)(O)C(=O)N1CCC(c2ccc(NC(=O)N3CC(c4cccnc4)C3)cc2)CC1` [Example 51, N-{4-[1-(2-hydroxy-2-methylpropanoyl)piperidin-4-yl]phenyl}-3-(pyridin-3-yl)azetidine-1-carboxamide]: the IC50 on NAMPT [1] is 0.0172 µM; at NAMPT [2], 0.000303 µM; with PC3 cells it was 0.00178 µM.

As to `O=C(CC1CC1)N1CCC(Oc2ccc(NC(=O)N3CC(c4cccnc4)C3)cc2)CC1` [Example 40, N-(4-{[1-(cyclopropylacetyl)piperidin-4-yl]oxy}phenyl)-3-(pyridin-3-yl)azetidine-1-carboxamide], the 50% inhibitory concentration (IC50) at NAMPT [1] was determined as 0.0505 µM; at NAMPT [2], 0.000419 µM; in the assay with PC3 cells it was 0.0264 µM.

For `CC(C)CCC(=O)N1CCC(Oc2ccc(NC(=O)N3CC(c4cccnc4)C3)cc2)CC1` [Example 42, N-(4-{[1-(4-methylpentanoyl)piperidin-4-yl]oxy}phenyl)-3-(pyridin-3-yl)azetidine-1-carboxamide], the IC50 came out at 0.0438 µM on NAMPT [1], 0.00027 µM at NAMPT [2] and 0.1 µM in the assay on PC3 cells.

With `O=C(CCN1CCCCC1)N1CCC(c2ccc(NC(=O)N3CC(c4cccnc4)C3)cc2)C1` (stereo not drawn) [Example 287, N-(4-{1-[3-(piperidin-1-yl)propanoyl]pyrrolidin-3-yl}phenyl)-3-(pyridin-3-yl)azetidine-1-carboxamide], the 50% inhibitory concentration (IC50) at NAMPT [1] was found to be 0.0301 µM; on NAMPT [2], 0.000189 µM; with PC3 cells it was 0.0374 µM.

Regarding `CCC(C)CC(=O)N1CCC(c2ccc(NC(=O)N3CC(c4cccnc4)C3)cc2)CC1` (stereo not drawn) [Example 167, N-{4-[1-(3-methylpentanoyl)piperidin-4-yl]phenyl}-3-(pyridin-3-yl)azetidine-1-carboxamide], the half-maximal inhibitory concentration (IC50) came to 0.00841 µM on NAMPT [1], 0.000319 µM on NAMPT [2] and 0.0235 µM in the assay on PC3 cells.

For the compound `CC1(C(=O)N2CCC(c3ccc(NC(=O)N4CC(c5cccnc5)C4)cc3)CC2)CC1` [Example 193, N-(4-{1-[(1-methylcyclopropyl)carbonyl]piperidin-4-yl}phenyl)-3-(pyridin-3-yl)azetidine-1-carboxamide], the IC50 was 0.0144 µM on NAMPT [1], 0.000243 µM at NAMPT [2] and 0.0137 µM with PC3 cells.

In the case of `CC(=O)N1CCC(C(=O)N2CCC(Oc3ccc(NC(=O)N4CC(c5cccnc5)C4)cc3)CC2)CC1` [Example 34, N-[4-({1-[(1-acetylpiperidin-4-yl)carbonyl]piperidin-4-yl}oxy)phenyl]-3-(pyridin-3-yl)azetidine-1-carboxamide], the IC50 was 0.0507 µM on NAMPT [1], 0.000264 µM at NAMPT [2] and 0.0624 µM in the assay with PC3 cells.

In the case of `CC(C)CN1CC(c2ccc(NC(=O)N3CC(c4cccnc4)C3)cc2)C1` [Example 251, N-{4-[1-(2-methylpropyl)azetidin-3-yl]phenyl}-3-(pyridin-3-yl)azetidine-1-carboxamide], the concentration for half-maximal inhibition (IC50) on NAMPT [1] worked out at 0.382 µM; on NAMPT [2] it was 0.000365 µM; with PC3 cells it was 0.212 µM.

Turning to `CC(C)(C)OC(=O)N1CC(Oc2ccc(NC(=O)N3CC(c4cccnc4)C3)cc2)C1` [Example 63, tert-butyl 3-[4-({[3-(pyridin-3-yl)azetidin-1-yl]carbonyl}amino)phenoxy]azetidine-1-carboxylate], the IC50 on NAMPT [1] was determined as 0.0446 µM; on NAMPT [2] it was 0.00039 µM; with PC3 cells, 0.012 µM.

For `O=C(Nc1ccc(O[C@@H]2CCN(C(=O)c3nccs3)C2)cc1)N1CC(c2cccnc2)C1` [Example 307, 3-(pyridin-3-yl)-N-(4-{[(3R)-1-(1,3-thiazol-2-ylcarbonyl)pyrrolidin-3-yl]oxy}phenyl)azetidine-1-carboxamide], the IC50 is 0.0243 µM on NAMPT [1], 0.000197 µM on NAMPT [2] and 0.00987 µM in the assay on PC3 cells.

Regarding `O=C(CN1CCOCC1)N1CC(Oc2ccc(NC(=O)N3CC(c4cccnc4)C3)cc2)C1` [Example 143, N-(4-{[1-(morpholin-4-ylacetyl)azetidin-3-yl]oxy}phenyl)-3-(pyridin-3-yl)azetidine-1-carboxamide], the half-maximal inhibitory concentration (IC50) stood at 0.136 µM at NAMPT [1], 0.000763 µM on NAMPT [2] and 0.0822 µM in the assay with PC3 cells.

With `CCC(CC)CN1CC(c2ccc(NC(=O)N3CC(c4cccnc4)C3)cc2)C1` [Example 253, N-{4-[1-(2-ethylbutyl)azetidin-3-yl]phenyl}-3-(pyridin-3-yl)azetidine-1-carboxamide], the half-inhibitory concentration (IC50) at NAMPT [1] came to 0.538 µM; at NAMPT [2] it was 0.000207 µM; in the assay on PC3 cells, 0.622 µM.

For `Cn1cccc1C(=O)N1CCC(c2ccc(NC(=O)N3CC(c4cccnc4)C3)cc2)CC1` [Example 191, N-(4-{1-[(1-methyl-1H-pyrrol-2-yl)carbonyl]piperidin-4-yl}phenyl)-3-(pyridin-3-yl)azetidine-1-carboxamide], the values for the half-inhibitory concentration (IC50) at NAMPT [1], at NAMPT [2] and in the assay on PC3 cells were 0.00427 µM, 0.000291 µM and 0.00746 µM, respectively.

`COCCOCC(=O)N1CCC(c2ccc(NC(=O)N3CC(c4cccnc4)C3)cc2)CC1` [Example 176, N-(4-{1-[(2-methoxyethoxy)acetyl]piperidin-4-yl}phenyl)-3-(pyridin-3-yl)azetidine-1-carboxamide]: the IC50 was found to be 0.0655 µM on NAMPT [1], 0.00035 µM on NAMPT [2] and 0.0889 µM with PC3 cells.

With `O=C(CC1CCOCC1)N1CCC(Oc2ccc(NC(=O)N3CC(c4cccnc4)C3)cc2)CC1` [Example 2, 3-(pyridin-3-yl)-N-(4-{[1-(tetrahydro-2H-pyran-4-ylacetyl)piperidin-4-yl]oxy}phenyl)azetidine-1-carboxamide], the IC50 at NAMPT [1] came out at 0.125 µM; at NAMPT [2], 0.00037 µM; in the assay with PC3 cells it was 0.0349 µM.

Turning to `O=C(Nc1ccc(C2CCN(CC3CCOC3)CC2)cc1)N1CC(c2cccnc2)C1` (stereo not drawn) [Example 243, 3-(pyridin-3-yl)-N-{4-[1-(tetrahydrofuran-3-ylmethyl)piperidin-4-yl]phenyl}azetidine-1-carboxamide], the IC50 at NAMPT [1] is 1.27 µM; on NAMPT [2] it was 0.000326 µM; in the assay on PC3 cells, 1.31 µM.

Take `CC(C)(C)CC(=O)N1CCC(Oc2ccc(NC(=O)N3CC(c4cccnc4)C3)cc2)CC1` [Example 45, N-(4-{[1-(3,3-dimethylbutanoyl)piperidin-4-yl]oxy}phenyl)-3-(pyridin-3-yl)azetidine-1-carboxamide]: the IC50 at NAMPT [1] worked out at 0.0343 µM; at NAMPT [2], 0.000223 µM; in the assay on PC3 cells, 0.0634 µM.

`CC[C@H](C)C(=O)N1CC[C@H](Oc2ccc(NC(=O)N3CC(c4cccnc4)C3)cc2)C1` [Example 98, N-[4-({(3S)-1-[(2S)-2-methylbutanoyl]pyrrolidin-3-yl}oxy)phenyl]-3-(pyridin-3-yl)azetidine-1-carboxamide]: the figures for the IC50 at NAMPT [1], on NAMPT [2] and with PC3 cells were 0.616 µM, 0.00119 µM and 0.0709 µM, respectively.

As for `CC(C)(O)C(=O)N1CC[C@H](Oc2ccc(NC(=O)N3CC(c4cccnc4)C3)cc2)C1` [Example 94, N-(4-{[(3S)-1-(2-hydroxy-2-methylpropanoyl)pyrrolidin-3-yl]oxy}phenyl)-3-(pyridin-3-yl)azetidine-1-carboxamide], the IC50 was determined as 0.488 µM on NAMPT [1], 0.000213 µM on NAMPT [2] and 0.598 µM in the assay on PC3 cells.

Turning to `O=C(CCN1CCOCC1)N1CC[C@@H](Oc2ccc(NC(=O)N3CC(c4cccnc4)C3)cc2)C1` [Example 321, N-[4-({(3R)-1-[3-(morpholin-4-yl)propanoyl]pyrrolidin-3-yl}oxy)phenyl]-3-(pyridin-3-yl)azetidine-1-carboxamide], the IC50 at NAMPT [1] stood at 0.176 µM; at NAMPT [2] it was 0.000246 µM; with PC3 cells, 0.119 µM.

`CC(C)CC(=O)N1CC(c2ccc(NC(=O)N3CC(c4cccnc4)C3)cc2)C1` [Example 208, N-{4-[1-(3-methylbutanoyl)azetidin-3-yl]phenyl}-3-(pyridin-3-yl)azetidine-1-carboxamide]: the IC50 was determined as 0.0486 µM on NAMPT [1], 0.000473 µM on NAMPT [2] and 0.0737 µM with PC3 cells.

On to `O=C(Nc1ccc(C2=CCN(C(=O)[C@@H]3CCCO3)CC2)cc1)N1CC(c2cccnc2)C1` [Example 11, 3-(pyridine-3-yl)-N-(4-{1-[(2S)-tetrahydrofuran-2-ylcarbonyl]-1,2,3,6-tetrahydropyridin-4-yl}phenyl)azetidine-1-carboxamide], for which the IC50 on NAMPT [1] is 0.0158 µM; at NAMPT [2], 0.00032 µM; in the assay on PC3 cells it was 0.00933 µM.

For the compound `CC(C)(C)CC(=O)N1CC[C@@H](Oc2ccc(NC(=O)N3CC(c4cccnc4)C3)cc2)C1` [Example 329, N-(4-{[(3R)-1-(3,3-dimethylbutanoyl)pyrrolidin-3-yl]oxy}phenyl)-3-(pyridin-3-yl)azetidine-1-carboxamide], the half-maximal inhibitory concentration (IC50) at NAMPT [1] worked out at 0.0304 µM; on NAMPT [2], 0.000276 µM; in the assay on PC3 cells, 0.0145 µM.
